Active and inactive are the calls of the source. The calls are words filed in the database; no cut-off is given here.
Assays:
[1] = Volume of distribution at steady state in rat at 1 mg/kg, iv or 2 mg/kg, po by LC/MS/MS analysis; assay type: ADME, organism-based; details: in vivo, read-out: Vdss
[2] = Oral bioavailability in mouse at 10 mg/kg by LC/MS/MS analysis; assay type: ADME, organism-based; details: in vivo
[3] = MRT in mouse at 2 mg/kg, iv or 10 mg/kg, po by LC/MS/MS analysis; assay type: ADME, organism-based; details: in vivo
[4] = target: Sodium channel protein type 5 subunit alpha (Homo sapiens, UniProt Q14524); assay: Inhibition of Nav1.5 (unknown origin)
[5] = Protein binding in mouse plasma at 2 mg/kg, iv or 10 mg/kg, po by LC/MS/MS analysis; assay type: ADME, organism-based; details: read-out: PPB (converted)
[6] = target: Voltage-dependent L-type calcium channel subunit alpha-1C (Homo sapiens, UniProt Q13936); assay: Inhibition of Cav1.2 (unknown origin)
[7] = target: T1, Peroxisome proliferator-activated receptor gamma (Homo sapiens) (UniProt P37231); assay: Displacement of [3H]Rosiglitazone from recombinant human PPARgamma expressed in insect cells
T1 sequence (whole entry): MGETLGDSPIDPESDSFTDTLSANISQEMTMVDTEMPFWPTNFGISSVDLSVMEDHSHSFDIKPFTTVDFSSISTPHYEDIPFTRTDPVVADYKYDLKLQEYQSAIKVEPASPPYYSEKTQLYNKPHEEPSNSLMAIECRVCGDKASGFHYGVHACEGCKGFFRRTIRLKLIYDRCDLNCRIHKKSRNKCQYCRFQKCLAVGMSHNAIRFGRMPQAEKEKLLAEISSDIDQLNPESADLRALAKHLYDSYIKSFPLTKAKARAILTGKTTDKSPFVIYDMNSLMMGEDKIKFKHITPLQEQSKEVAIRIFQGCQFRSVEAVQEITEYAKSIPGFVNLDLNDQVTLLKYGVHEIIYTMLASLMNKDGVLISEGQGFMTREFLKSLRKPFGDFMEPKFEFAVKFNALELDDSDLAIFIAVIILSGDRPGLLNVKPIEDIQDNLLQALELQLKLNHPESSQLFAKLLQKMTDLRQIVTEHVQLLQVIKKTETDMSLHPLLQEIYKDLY

[8] = Half life in rhesus monkey at 0.5 mg/kg, iv or 1 mg/kg, po by LC/MS/MS analysis; assay type: ADME, organism-based, Macaca mulatta; details: in vivo
[9] = AUC in rhesus monkey at 0.5 mg/kg, iv by LC/MS/MS analysis; assay type: ADME, organism-based, Macaca mulatta; details: in vivo
[10] = MRT in dog at 1 mg/kg, iv or 2 mg/kg, po by LC/MS/MS analysis; assay type: ADME, organism-based, Canis lupus familiaris; details: in vivo
[11] = Volume of distribution at steady state in mouse at 2 mg/kg, iv or 10 mg/kg, po by LC/MS/MS analysis; assay type: ADME, organism-based; details: in vivo, read-out: Vdss
[12] = Half life in mouse at 2 mg/kg, iv or 10 mg/kg, po by LC/MS/MS analysis; assay type: ADME, organism-based; details: in vivo
[13] = Plasma clearance in rhesus monkey at 0.5 mg/kg, iv or 1 mg/kg, po by LC/MS/MS analysis; assay type: ADME, organism-based, Macaca mulatta
[14] = AUC in dog at 1 mg/kg, iv by LC/MS/MS analysis; assay type: ADME, organism-based, Canis lupus familiaris; details: in vivo
[15] = test system: Mus musculus; assay: Antidiabetic activity in diet-induced obese mouse assessed as insulin sensitivity by measuring reduction in glucose at 30 mg/kg, po qd administered daily via gavage for 28 days measured on day 28 post dose; assay type: functional, organism-based
[16] = target: T2, Free fatty acid receptor 4 (Mus musculus, UniProt Q7TMA4); assay: Agonist activity at mouse GPR120 expressed in U2OS cells assessed as induction of beta-arrestin2 recruitment after 90 mins by luminescence assay; assay type: cell-based
T2 sequence (Q7TMA4 whole entry): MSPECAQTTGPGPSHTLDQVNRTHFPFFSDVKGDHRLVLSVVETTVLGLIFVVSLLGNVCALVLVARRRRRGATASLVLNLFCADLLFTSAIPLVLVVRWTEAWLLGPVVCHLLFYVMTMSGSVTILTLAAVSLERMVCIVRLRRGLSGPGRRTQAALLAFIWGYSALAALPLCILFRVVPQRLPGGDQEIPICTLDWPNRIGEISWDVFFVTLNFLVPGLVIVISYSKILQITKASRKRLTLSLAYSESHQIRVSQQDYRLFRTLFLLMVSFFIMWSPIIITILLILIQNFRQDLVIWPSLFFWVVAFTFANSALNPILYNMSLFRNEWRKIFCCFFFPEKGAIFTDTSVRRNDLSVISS

[17] = Oral bioavailability in rhesus monkey at 1 mg/kg by LC/MS/MS analysis; assay type: ADME, organism-based, Macaca mulatta; details: in vivo
[18] = target: Cytochrome P450 2C9 (Homo sapiens, UniProt P11712); assay: Inhibition of human CYP2C9; assay type: ADME
[19] = Oral bioavailability in dog at 2 mg/kg by LC/MS/MS analysis; assay type: ADME, organism-based, Canis lupus familiaris; details: in vivo
[20] = test system: Mus musculus; assay: Antidiabetic activity in diet-induced obese mouse assessed as reduction in homeostatic model assessment of insulin resistance at 30 mg/kg, po qd administered daily via gavage for 14 days measured on day 14 post dose; assay type: functional, organism-based
[21] = test system: Mus musculus; assay: Decrease in insulin levels in diet-induced obese mouse at 30 mg/kg, po qd administered daily via gavage for 14 days measured on day 14 post dose; assay type: functional, organism-based
[22] = Plasma clearance in mouse at 2 mg/kg, iv or 10 mg/kg, po by LC/MS/MS analysis; assay type: ADME, organism-based
[23] = Plasma clearance in dog at 1 mg/kg, iv or 2 mg/kg, po by LC/MS/MS analysis; assay type: ADME, organism-based, Canis lupus familiaris
[24] = target: Voltage-gated inwardly rectifying potassium channel KCNH2 (Homo sapiens, UniProt Q12809); assay: Displacement of [35S]-MK499 from human ERG expressed in HEK293 cell membranes
[25] = Protein binding in rat plasma at 1 mg/kg, iv or 2 mg/kg, po by LC/MS/MS analysis; assay type: ADME, organism-based; details: read-out: PPB (converted)
[26] = MRT in rhesus monkey at 0.5 mg/kg, iv or 1 mg/kg, po by LC/MS/MS analysis; assay type: ADME, organism-based, Macaca mulatta; details: in vivo
[27] = target: Free fatty acid receptor 1 (Homo sapiens, UniProt O14842); assay: Agonist activity at human GPR40 expressed in HEK293 cells assessed as induction of IP1 accumulation after 60 mins by HTRF assay; assay type: functional, cell-based
Chain of Free fatty acid receptor 1 (O14842 whole entry): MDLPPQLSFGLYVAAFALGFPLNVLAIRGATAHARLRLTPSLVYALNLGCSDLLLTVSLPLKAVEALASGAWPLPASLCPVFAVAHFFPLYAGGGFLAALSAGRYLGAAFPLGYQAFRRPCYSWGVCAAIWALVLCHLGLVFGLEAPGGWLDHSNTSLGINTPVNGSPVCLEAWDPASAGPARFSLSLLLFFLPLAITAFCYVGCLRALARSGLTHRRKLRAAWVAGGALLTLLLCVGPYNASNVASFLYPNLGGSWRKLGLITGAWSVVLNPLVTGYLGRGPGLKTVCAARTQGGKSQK

Chain of Sodium channel protein type 5 subunit alpha (Q14524 whole entry): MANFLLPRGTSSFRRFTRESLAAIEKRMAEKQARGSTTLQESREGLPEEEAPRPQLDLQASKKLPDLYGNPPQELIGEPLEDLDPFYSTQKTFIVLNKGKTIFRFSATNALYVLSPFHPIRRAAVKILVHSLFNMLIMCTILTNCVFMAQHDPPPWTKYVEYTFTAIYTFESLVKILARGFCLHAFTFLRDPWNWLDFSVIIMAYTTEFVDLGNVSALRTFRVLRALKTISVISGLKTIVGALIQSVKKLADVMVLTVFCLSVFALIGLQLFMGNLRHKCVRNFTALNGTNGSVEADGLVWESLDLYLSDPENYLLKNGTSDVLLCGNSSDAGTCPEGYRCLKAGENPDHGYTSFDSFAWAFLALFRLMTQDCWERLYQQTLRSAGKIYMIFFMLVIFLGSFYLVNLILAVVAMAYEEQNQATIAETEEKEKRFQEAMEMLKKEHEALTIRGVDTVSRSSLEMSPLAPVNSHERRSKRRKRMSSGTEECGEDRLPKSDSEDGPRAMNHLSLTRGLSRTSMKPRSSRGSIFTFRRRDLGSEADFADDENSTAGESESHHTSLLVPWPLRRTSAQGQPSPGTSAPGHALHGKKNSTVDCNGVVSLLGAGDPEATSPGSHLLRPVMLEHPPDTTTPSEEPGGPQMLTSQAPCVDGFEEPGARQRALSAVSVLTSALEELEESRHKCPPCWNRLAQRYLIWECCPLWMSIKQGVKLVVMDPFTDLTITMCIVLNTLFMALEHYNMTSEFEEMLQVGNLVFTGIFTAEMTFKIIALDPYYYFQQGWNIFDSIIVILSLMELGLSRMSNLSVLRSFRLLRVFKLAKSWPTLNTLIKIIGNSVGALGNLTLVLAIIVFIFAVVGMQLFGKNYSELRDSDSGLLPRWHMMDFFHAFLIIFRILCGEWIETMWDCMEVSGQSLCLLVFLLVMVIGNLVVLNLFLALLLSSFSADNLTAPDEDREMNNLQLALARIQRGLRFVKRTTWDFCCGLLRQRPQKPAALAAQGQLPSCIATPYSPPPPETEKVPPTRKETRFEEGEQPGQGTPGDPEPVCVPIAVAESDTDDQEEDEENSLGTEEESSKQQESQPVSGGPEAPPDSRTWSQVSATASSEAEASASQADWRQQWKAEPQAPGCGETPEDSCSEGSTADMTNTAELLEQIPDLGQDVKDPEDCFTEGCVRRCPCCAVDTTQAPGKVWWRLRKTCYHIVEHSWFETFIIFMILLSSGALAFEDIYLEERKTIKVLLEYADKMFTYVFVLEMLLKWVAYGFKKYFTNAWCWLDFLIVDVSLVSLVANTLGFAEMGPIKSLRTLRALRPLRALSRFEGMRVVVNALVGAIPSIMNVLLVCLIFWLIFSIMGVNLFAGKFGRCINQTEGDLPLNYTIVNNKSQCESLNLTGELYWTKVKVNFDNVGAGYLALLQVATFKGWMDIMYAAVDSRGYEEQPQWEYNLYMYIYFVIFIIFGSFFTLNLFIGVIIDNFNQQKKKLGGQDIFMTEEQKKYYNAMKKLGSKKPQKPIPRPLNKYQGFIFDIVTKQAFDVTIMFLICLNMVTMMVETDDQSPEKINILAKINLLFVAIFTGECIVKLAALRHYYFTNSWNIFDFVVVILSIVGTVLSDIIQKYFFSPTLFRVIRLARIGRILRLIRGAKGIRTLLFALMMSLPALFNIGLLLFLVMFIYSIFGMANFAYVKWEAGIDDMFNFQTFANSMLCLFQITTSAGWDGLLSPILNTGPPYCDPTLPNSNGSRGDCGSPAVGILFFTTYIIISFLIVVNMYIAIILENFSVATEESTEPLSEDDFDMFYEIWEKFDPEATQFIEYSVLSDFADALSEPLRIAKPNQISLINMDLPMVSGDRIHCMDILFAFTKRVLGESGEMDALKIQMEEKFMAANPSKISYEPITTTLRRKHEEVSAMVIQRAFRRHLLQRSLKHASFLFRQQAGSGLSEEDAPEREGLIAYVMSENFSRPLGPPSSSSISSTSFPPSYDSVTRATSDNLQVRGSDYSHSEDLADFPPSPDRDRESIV
Chain of Cytochrome P450 2C9 (P11712 whole entry): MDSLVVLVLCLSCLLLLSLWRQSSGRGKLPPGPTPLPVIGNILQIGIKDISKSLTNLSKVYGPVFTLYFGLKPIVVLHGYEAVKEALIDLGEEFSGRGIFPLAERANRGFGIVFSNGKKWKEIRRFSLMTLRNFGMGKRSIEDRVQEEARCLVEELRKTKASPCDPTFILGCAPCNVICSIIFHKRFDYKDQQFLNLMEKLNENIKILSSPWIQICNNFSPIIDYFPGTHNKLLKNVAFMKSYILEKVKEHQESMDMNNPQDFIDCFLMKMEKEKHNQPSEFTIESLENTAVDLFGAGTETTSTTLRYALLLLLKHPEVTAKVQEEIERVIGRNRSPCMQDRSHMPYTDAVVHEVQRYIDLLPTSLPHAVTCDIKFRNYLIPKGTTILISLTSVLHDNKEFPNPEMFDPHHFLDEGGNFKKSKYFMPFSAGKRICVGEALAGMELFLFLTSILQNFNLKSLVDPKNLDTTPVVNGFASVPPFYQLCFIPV
Chain of Voltage-gated inwardly rectifying potassium channel KCNH2 (Q12809 whole entry): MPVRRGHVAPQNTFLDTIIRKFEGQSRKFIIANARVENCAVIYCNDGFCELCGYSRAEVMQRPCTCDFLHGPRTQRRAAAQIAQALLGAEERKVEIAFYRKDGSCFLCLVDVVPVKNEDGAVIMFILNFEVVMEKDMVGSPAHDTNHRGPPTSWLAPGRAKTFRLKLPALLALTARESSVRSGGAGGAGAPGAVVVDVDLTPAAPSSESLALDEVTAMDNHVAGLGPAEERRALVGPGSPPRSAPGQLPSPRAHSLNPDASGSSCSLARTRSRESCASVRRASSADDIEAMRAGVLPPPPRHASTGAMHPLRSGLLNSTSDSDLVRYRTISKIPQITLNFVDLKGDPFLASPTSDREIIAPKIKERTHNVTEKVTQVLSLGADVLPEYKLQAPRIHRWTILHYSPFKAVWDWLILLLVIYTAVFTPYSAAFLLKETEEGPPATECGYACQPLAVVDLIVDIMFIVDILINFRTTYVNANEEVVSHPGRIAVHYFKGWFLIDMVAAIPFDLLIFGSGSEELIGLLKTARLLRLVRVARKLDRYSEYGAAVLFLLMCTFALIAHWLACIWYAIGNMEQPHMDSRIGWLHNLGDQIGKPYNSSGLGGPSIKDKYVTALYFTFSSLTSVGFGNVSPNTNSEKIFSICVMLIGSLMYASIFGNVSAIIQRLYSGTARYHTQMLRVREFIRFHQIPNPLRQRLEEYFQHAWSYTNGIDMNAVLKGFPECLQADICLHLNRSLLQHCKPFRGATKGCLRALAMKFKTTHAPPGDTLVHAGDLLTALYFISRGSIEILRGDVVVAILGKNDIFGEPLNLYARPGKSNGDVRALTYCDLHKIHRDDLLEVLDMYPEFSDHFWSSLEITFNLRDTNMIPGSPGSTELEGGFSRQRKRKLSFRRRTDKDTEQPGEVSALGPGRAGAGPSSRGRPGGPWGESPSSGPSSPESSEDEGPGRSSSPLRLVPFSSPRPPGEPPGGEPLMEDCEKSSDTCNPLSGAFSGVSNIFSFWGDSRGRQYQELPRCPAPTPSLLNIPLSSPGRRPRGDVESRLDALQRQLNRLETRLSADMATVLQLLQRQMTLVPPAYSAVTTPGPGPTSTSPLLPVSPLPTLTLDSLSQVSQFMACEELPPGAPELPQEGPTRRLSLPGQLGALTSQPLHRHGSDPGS

`O=C(O)CC1CCC2(CC1)CCN(c1cc(OC(F)(F)F)ccc1Cl)CC2` gave a Vd [1] of 0.4 L/kg, a bioavailability [2] of 100% and an MRT [3] of 26.5 h. For the same compound, the INH [4] was 13 µM, the fraction unbound [5] was 0.0021 and the INH [6] was 21 µM. For the same compound, the INH [7] was greater than 10 µM, the half-life [8] was 9.1 h and the AUC [9] was 8.7 µM·h. It also gave an MRT [10] of 10.5 h, a Vd [11] of 8.9 L/kg and a half-life [12] of 18.1 h. The clearance [13] was 2.7 mL/min/kg, the AUC [14] was 4.6 µM·h and the Activity [15] was “Active”. It also gave an EC50 [16] of 54 nM, a bioavailability [17] of 77% and an INH [18] greater than 48 µM. The bioavailability [19] was 100%, the Activity [20] was “Active” and the Activity [21] was “Active”. It also gave a clearance [22] of 8.4 mL/min/kg, a clearance [23] of 9.8 mL/min/kg and an INH [24] greater than 60 µM. For the same compound, the fraction unbound [25] was 0.0013, the MRT [26] was 10.1 h and the EC50 [27] was greater than 10000 nM.
